Results on 2 compounds are retold here after patent publication US8486991B2, “Enantiomerically pure phosphoindoles as HIV inhibitors” (Idenix Pharmaceuticals, Inc., priority 2006, dated 2013).

Where “and” joins values, the source holds several entries; their conditions need not be identical. Equal entries are not always repeated. Where two headings read alike, the source gives them in different places. Some results are limits rather than exact numbers.

For series [1], the target named is T1, wild-type HIV-1 RT enzyme in BH10 backbone (Human immunodeficiency virus type 1 group M subtype B, UniProt P03366).
T1 construct: wild-type HIV RT enzyme derived from HIV subtype B (BH-10 strain)
Description: biochemical. As to conditions: for IC50: Average IC50 Values ± Standard Deviation, W.T.; for Fold Change, W.T.: Table 2, mutant vs wild-type; for Average Fold Changes ± Standard Deviation, W.T.: Table 4, IC50 mutant / IC50 wild-type. From the text: In Vitro Antiviral Activity Against Additional Mutant HIV RT Enzymes

Another series deals with MT-4 cells. Description: Cellular cytotoxicity, 4 days, MTS, MT-4. The following applies: for CC50: read-out: Average CC50 Values ± Standard Deviation, MT-4, Table 21, 4 days, MTS. On the procedure: Following drug exposure for 4 days, cell viability was measured by MTS staining and CC50 values were determined. Drug concentrations ranged from 0.005 μM to 100 μM.
The preceding data, allows us to calculate selectivity index (SI) values, based on the ratio of CC50 to EC50 in MT-4 cells (the standard assay used in this work).

Series [2] is described as follows: In vitro half-life in liver microsomes, rat. It is filed as in vitro ADME. The following applies: up to one hour, longer half-lives are extrapolated, n=1. On the procedure:
(§1) In vitro metabolism was assessed using liver microsomes for all species. Compounds were incubated at 1 μM with liver microsomes for up to one hour. Reported half-lives greater than the total incubation time are extrapolated values. Extracts were assayed for disappearance of parent compound by LC-MS/MS detection.
(§2) Data represents one independent experiment conducted.

Series [3] is described as follows: In vitro half-life in liver microsomes, monkey. Format: in vitro ADME. As to conditions: up to one hour, n=1. The method, then: as §1, §2
Background: Liver microsomes are a subcellular fraction often used to study metabolism.

Series [4] can be described thus: In vivo pharmacokinetics, dogs. As to conditions: both sexes, Dog; for Tmax: mean; for bioavailability: read-out: BA (absolute oral bioavailability). On the procedure:
All animals received a single oral or intravenous dose of compound in either polyethylene glycol 400 (PEG400) or a mixture of 10% ethanol (EtOH), 10% dimethylacetamine (DMA) and 80% PEG400 at the indicated dose level. Plasma concentration data were acquired using sensitive and specific LC-MS/MS methods. Pharmacokinetic data from the toxicity study included aspects of gender differences, variability and exposure.
Blood samples (1.5-2.5 mL) were collected in heparinized tubes at 0 (pre-dose), 5 (IV only), 10, 20, 30 min, 1, 2, 4, 6, 8, 12 (PO only) and 24 hr after dosing. Plasma was separated and stored at −70° C. until analysis.
Concentrations of unlabeled compound I and compound III within plasma samples and excreta from rat, dog and monkey PK studies were identified through high performance liquid chromatographic (HPLC) methods that incorporated tandem mass spectrometric detection (LC-MS/MS).
The absolute oral bioavailability was determined in pharmacokinetic by comparison of AUC values of parent compound following single intravenous and oral doses of in rats (compound III only), dogs and monkeys.

The subject of the next series is cynomolgus monkeys. Put plainly: 14-day oral toxicity, monkeys. It is filed as in vivo, cynomolgus monkey. The following applies: for effects on food consumption or body weight: once daily oral gavage 14 days, up to 500 (I) or 450 (III) mg/kg/day. The method, then:
Sprague-Dawley rats and cynomolgus monkeys were dosed once daily for 14 days via oral gavage with compound I or compound III or dose vehicle (68% Capmul PG-8, 20% PEG 400, 2% Tween 20, and 10% Labrasol) according to GLP. There were 10 male and 10 female rats, and there were 3 male and 3 female monkeys. Rats and monkeys were dosed with 0, 50, 150 or 500 mg/kg/day compound I or with 0, 50, 150, 450 mg/kg/day compound III.
Toxicity was assessed using clinical observations, body weights, food consumption, and clinical pathology (hematology, coagulation, and serum chemistry).
A comprehensive necropsy and gross pathological examination was performed on all animals and selected organs and tissues were collected for histological evaluation.
Determinations of hematocrit, hemoglobin concentration, erythrocyte count, total leukocyte count, and platelet count were conducted on all samples. Leukocyte differential and morphologic assessments were performed.
Clinical biochemistry determinations included activities of alanine aminotransferase (ALT), aspartate aminotransferase (AST), gamma-glutamyltranspeptidase (GGT), and alkaline phosphatase (ALP) and concentrations of blood urea nitrogen (BUN), creatinine, total protein, albumin, globulin, glucose, cholesterol, triglycerides, total bilirubin, and electrolyte levels (Na, K, P, Cl, Ca).
Urine samples (monkeys only) were evaluated macroscopically and microscopically and tested for pH, bilirubin, glucose, protein, ketones, blood, urobilinogen, nitrites, leukocytes, and specific gravity.

The target in another series is CYP3A4 (Homo sapiens, UniProt P08684). Put plainly: Human liver microsomal CYP450 inhibition, CYP3A4. The following applies: for Ki / Type of inhibition, CYP3A4 (Midazolam) / Type of inhibition, CYP3A4 (Testosterone) / kinact: human liver microsomes; for IC50: pooled human liver microsomes, probe midazolam and testosterone; for type of inhibition of CYP3A4: text b965, substrate not stated.

The target in the next series is T2, CYP1A2 (Homo sapiens, UniProt P05177).
T2 sequence (P05177 1-516): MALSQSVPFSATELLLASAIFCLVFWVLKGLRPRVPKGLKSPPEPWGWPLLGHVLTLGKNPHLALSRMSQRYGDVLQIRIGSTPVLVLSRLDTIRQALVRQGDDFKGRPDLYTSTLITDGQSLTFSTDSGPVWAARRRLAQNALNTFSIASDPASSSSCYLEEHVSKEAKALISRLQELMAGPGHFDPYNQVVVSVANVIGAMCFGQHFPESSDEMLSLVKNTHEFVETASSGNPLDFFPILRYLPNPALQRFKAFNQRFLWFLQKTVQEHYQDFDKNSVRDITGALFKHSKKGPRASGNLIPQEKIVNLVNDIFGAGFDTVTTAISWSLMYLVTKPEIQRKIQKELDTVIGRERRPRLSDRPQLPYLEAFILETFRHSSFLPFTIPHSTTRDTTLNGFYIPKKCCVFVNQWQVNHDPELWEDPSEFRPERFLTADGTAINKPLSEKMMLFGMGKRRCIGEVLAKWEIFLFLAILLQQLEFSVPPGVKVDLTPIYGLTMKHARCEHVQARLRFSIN
Description: Recombinant CYP450 inhibition, fluorometric, CYP1A2. Format: in vitro ADME. Also on record: from tissue; host or cells: pooled human liver microsomes. On the procedure: Compounds were assayed using recombinant human microsomal proteins with fluorometric substrates. Signal was measured with a Fusion plate reader utilizing the appropriate excitation and emission wavelength set to detect the specific metabolite: […]

The next series addresses CYP2C9 (Homo sapiens, UniProt P11712). Description: Recombinant CYP450 inhibition, Luciferin-H, CYP2C9. Format: in vitro ADME. Also noted: from tissue; host or cells: pooled human liver microsomes. The following applies: highest concentration tested 10 μM. The method, then: CYP2C9 inhibition was performed by incubating a luminogenic CYP450 substrate Luciferin-H with CYP2C9 and an NADPH regeneration system. Luminescence measured using a Fusion plate reader.

The mark [5] stands for this setting: Table 1, in presence of detergent.
[6] abbreviates: CYP3A4 (Testosterone), time dependent inhibition.
Where [7] appears, read: plasma, 20 mg/kg PO-Fed, 1M, 1F.

CYP3A4, sequence (P08684 whole entry): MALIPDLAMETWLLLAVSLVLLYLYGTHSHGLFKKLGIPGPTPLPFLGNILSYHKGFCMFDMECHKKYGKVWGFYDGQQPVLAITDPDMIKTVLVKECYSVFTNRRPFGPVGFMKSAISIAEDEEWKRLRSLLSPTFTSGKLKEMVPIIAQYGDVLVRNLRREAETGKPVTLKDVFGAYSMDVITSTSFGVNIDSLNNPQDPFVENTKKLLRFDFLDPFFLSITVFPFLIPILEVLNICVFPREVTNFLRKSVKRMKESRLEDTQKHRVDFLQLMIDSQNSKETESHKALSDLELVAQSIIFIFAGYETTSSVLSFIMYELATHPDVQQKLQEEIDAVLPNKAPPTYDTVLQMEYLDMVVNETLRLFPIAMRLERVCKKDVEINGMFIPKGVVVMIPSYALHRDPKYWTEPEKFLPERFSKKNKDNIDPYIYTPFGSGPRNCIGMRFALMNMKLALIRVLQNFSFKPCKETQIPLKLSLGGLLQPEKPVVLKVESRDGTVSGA
CYP2C9, sequence (P11712 whole entry, the tested form may be a part): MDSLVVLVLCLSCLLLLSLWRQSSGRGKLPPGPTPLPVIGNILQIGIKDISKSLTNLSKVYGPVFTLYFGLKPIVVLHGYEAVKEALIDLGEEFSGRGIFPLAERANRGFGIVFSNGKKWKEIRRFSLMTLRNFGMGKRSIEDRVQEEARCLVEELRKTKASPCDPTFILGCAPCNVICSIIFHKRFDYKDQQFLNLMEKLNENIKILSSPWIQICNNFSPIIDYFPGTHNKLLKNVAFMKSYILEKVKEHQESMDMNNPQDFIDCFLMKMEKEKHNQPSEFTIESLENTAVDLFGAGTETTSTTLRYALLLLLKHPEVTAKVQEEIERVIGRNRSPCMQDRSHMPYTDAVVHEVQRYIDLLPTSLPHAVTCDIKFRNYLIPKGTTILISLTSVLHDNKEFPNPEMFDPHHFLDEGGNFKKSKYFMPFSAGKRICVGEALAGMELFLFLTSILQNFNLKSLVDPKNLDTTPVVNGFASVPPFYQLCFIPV
Description for CYP3A4: In addition, the type of inhibition was also evaluated.
Enzyme kinetic studies of cytochrome P450 isozyme inhibition were conducted using human liver microsomes.
Control incubations included test article at a single concentration pre-incubated without NADPH and a positive control inhibitor. Metabolite formation was monitored by validated LC-MS/MS methods and the percent remaining activity in addition to kinact and KI values were determined.
Probe substrate for 2C8 was paclitaxel, probe substrate for 2C9 was diclofenac and for 3A4 probe substrates were midazolam and testosterone. Two substrates are used to assess 3A4 interactions due to multiple binding sites on the enzyme.

As for `CO[P@](=O)(c1cc(C)cc(/C=C/C#N)c1)c1c(C(N)=O)[nH]c2ccc(Cl)c(F)c12` [Compound I, (2-Carbamoyl-5-chloro-4-fluoro-1H-indol-3-yl)-[3-((E)-2-cyano-vinyl)-5-methyl-phenyl]-(R)-phosphinic acid methyl ester], the half-maximal inhibitory concentration (IC50) in series [1] (setting [5]) was 366 ± 251 nM; in series [1] (Table 3, N=10), 230 ± 50 nM; on CYP3A4 (human) it was less than 10000 nM; at CYP2C9, 8400 ± 670 nM. Besides, the “Fold Change, W.T.” value in series [1] amounted to 1 fold. Moreover, in series [1], the “Average Fold Changes ± Standard Deviation, W.T.” value came to 1 fold. Further, the “Selectivity Index (SI), CC50/EC50 in MT-4 cells” value with MT-4 cells is > 18,000 and > 22,000. Further, in the series with MT-4 cells, the half-maximal cytotoxic concentration (CC50) stood at 18600 ± 3100 nM. The half-life at 1 μM is 1.67 h in series [2] (microsomes) and 0.257 h in series [3] (microsomes). In addition, in series [4] (in vivo, 5 mg/kg PO-Fed, M+F), the time of peak concentration (Tmax) was 0.3 h. The bioavailability in [4] (in vivo, 5 mg/kg PO-Fed, M+F, IV 1 mg/kg) came to 9%. For the same compound, the “effects on food consumption or body weight” value with cynomolgus monkeys is listed as “No effects”. The Ki at CYP3A4 (setting [6]) turned out to be 140 nM; on CYP3A4 (human, 3A4, Example 18 table), 360 nM; on CYP3A4 (human, probe midazolam, CYP3A4 (Midazolam), time dependent inhibition), 180 nM. For the same compound, the “Type of inhibition, CYP3A4 (Midazolam)” value on CYP3A4 was “mechanism-based inhibition”. In addition, the “Type of inhibition, CYP3A4 (Testosterone)” value at CYP3A4 is on record as “mechanism-based inhibition”. For the same compound, the inactivation rate constant (kinact) is 0.0012 s⁻¹ on CYP3A4 (human, probe midazolam) and 0.00055 s⁻¹ on CYP3A4 (human, probe testosterone). In addition, the “type of inhibition of CYP3A4” value on CYP3A4 was “mechanism based inhibition”. In addition, on CYP1A2 (human, recombinant enzyme, 20 μM, read-out: percentage of inhibition at the highest concentration tested, CYP1A2), the inhibition at 20 µM is 17.5%.
For `CO[P@](=O)(c1cc(C)cc(/C=C/C#N)c1)c1c(C(N)=O)[nH]c2ccc(Cl)cc12` [Compound III, (2-Carbamoyl-5-chloro-1H-indol-3-yl)-[3-((E)-2-cyano-vinyl)-5-methyl-phenyl]-(R)-phosphinic acid methyl ester], the half-inhibitory concentration (IC50) in series [1] (setting [5]) was 343 ± 83 nM; in [1] (Table 3, N=10) it was 210 ± 20 nM; on CYP3A4 (human), less than 10000 nM; on CYP1A2 (highest concentration tested 20 μM), 17600 ± 2060 nM; on CYP2C9 it was 6850 ± 480 nM. Moreover, in series [1], the “Fold Change, W.T.” value was 1 fold. Further, the “Average Fold Changes ± Standard Deviation, W.T.” value in series [1] is given as 1 fold. The “Selectivity Index (SI), CC50/EC50 in MT-4 cells” value with MT-4 cells was > 22,000 and > 18,000. Further, the CC50 in the series on MT-4 cells amounted to 27300 ± 12900 nM. Also, the half-life at 1 μM in [2] (liver microsomes) was 1.48 h; in [3] (liver microsomes), 0.21 h. Moreover, the Tmax was 1.5 h in [4] (plasma, 5 mg/kg PO-Fed, M+F) and 2.2 h in series [4] (setting [7]). The bioavailability is 4% in series [4] (plasma, 5 mg/kg PO-Fed, M+F, IV 1 mg/kg) and 23% in [4] (setting [7]). Besides, in the series with cynomolgus monkeys (mid and high doses, livers microscopically unremarkable), the organ weights entry is “increased liver weights”. In addition, the “effects on food consumption or body weight” value in the series on cynomolgus monkeys is recorded as “No effects”. In addition, the Ki on CYP3A4 (CYP3A4 (Midazolam), time dependent inhibition) was 60 nM; on CYP3A4 (setting [6]), 210 nM. For the same compound, the “Type of inhibition, CYP3A4 (Midazolam)” value on CYP3A4 is recorded as “mechanism-based inhibition”. The “Type of inhibition, CYP3A4 (Testosterone)” value on CYP3A4 is on record as “mechanism-based inhibition”. In addition, the maximal inactivation rate constant (kinact) was 0.001 s⁻¹ at CYP3A4 (human, probe midazolam) and 0.000833 s⁻¹ at CYP3A4 (human, probe testosterone). For the same compound, at CYP3A4, the “type of inhibition of CYP3A4” value is “mechanism based inhibition”.

As usually defined, the IC50 is the point on the concentration scale where inhibition reaches its midpoint. Broadly, the CC50 is the concentration at which the toxic effect on the cells reaches its halfway point. The term half-life denotes the time needed for the level to fall by half in the phase considered. Broadly, the Tmax is the time from dosing to the highest level. One may read the bioavailability as the share of a dose that reaches the circulation, judged against a reference dose that is usually intravenous. One may read the kinact as the maximal first-order rate at which the target is inactivated.
